Results as given in ChEMBL document CHEMBL6153088, “Discovery of 1,4-Disubstituted Cyclohexene Analogues as Selective GPR119 Agonists for the Treatment of Type 2 Diabetes” (J Med Chem, 2025).
Values after ≈ are worked out from the molar mass of the structure shown. Values belong to the compound of their own block, whether it stands above or below them. Active and inactive are the calls of the source. The calls are words filed in the database; no cut-off is given here.

Legend:
[1] = target: T1, Glucose-dependent insulinotropic receptor (Homo sapiens, UniProt Q8TDV5); assay: Agonist activity at human GPR119 expressed in CHO cells assessed as cAMP level measured after 90 mins by HTRF based assay; format: functional, cell-based
T1 sequence (Q8TDV5 whole entry): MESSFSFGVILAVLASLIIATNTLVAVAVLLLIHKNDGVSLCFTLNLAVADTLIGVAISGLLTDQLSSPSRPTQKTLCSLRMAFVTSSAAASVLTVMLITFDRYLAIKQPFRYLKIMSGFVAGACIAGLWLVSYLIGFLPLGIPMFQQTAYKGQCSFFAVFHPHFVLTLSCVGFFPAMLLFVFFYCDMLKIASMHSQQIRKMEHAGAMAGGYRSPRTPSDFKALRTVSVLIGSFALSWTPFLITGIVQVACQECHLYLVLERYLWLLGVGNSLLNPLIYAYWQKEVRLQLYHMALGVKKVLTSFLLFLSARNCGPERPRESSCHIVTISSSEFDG

Mus musculus [2] = assay: (§1) Anti-diabetic activity in overnight fasted male C57BL/6J mouse assessed as reduction in blood glucose level by measuring reduction in AUC […] at 20 mg/kg pre-administered with compound for 30 min followed by glucose bolus addition and measured upto 120 min by oral glucose tolerance test relative to control; format: functional; parameters: scale not given: the % may be the effect or the level left; conditions: time <= 150 min, 2.5 h
[3] = target: Voltage-gated inwardly rectifying potassium channel KCNH2 (Homo sapiens, UniProt Q12809); assay: Inhibition of human ERG incubated for 150 min by fluorescence polarization based microplate reader analysis; format: toxicity
Voltage-gated inwardly rectifying potassium channel KCNH2, sequence (Q12809 whole entry): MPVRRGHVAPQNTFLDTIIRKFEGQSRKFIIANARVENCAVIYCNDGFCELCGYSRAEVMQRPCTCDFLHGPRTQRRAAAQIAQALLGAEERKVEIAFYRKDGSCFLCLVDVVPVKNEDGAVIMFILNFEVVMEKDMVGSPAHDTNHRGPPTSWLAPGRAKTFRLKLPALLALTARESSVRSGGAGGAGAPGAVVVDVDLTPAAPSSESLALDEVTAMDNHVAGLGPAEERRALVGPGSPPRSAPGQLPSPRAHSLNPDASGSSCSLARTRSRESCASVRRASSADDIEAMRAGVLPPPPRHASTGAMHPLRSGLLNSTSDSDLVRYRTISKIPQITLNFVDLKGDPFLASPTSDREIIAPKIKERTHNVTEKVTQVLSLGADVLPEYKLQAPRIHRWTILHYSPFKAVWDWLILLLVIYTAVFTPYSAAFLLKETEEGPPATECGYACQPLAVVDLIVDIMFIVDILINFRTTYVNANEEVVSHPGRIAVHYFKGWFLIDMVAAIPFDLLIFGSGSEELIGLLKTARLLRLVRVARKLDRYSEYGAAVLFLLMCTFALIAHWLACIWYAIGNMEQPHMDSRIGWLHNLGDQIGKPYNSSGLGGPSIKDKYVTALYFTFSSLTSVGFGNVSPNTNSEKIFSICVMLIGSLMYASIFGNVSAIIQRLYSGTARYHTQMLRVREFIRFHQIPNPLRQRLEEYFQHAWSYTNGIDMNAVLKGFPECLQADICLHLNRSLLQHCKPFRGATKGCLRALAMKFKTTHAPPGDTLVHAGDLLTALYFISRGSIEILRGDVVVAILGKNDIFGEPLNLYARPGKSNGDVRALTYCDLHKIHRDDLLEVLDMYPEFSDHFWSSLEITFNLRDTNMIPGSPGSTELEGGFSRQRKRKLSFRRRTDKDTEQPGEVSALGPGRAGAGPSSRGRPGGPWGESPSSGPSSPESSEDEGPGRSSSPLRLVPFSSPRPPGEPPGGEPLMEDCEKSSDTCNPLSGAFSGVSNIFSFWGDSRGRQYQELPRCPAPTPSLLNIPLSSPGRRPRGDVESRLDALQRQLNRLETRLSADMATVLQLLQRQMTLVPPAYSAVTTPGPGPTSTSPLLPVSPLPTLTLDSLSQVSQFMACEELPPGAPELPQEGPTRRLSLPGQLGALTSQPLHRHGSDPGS

[4] = Lipophilicity, logP of compound; format: physicochemical; conditions: octanol/water
[5] = Oral bioavailability in Cynomolgus monkey at 30 mg/kg measured upto 48 hrs by LC-MS/MS analysis; format: ADME, organism-based, Macaca fascicularis; conditions: in vivo
Cytochrome P450 2D6 = Cytochrome P450 2D6 (Homo sapiens, UniProt P10635); assay: Inhibition of CYP2D6 in human liver microsomes using dextromethorphan as substrate incubated for 20 min in presence of NADPH by LC-MS/MS analysis; format: ADME, Microsome
Cytochrome P450 2D6, sequence (P10635 whole entry): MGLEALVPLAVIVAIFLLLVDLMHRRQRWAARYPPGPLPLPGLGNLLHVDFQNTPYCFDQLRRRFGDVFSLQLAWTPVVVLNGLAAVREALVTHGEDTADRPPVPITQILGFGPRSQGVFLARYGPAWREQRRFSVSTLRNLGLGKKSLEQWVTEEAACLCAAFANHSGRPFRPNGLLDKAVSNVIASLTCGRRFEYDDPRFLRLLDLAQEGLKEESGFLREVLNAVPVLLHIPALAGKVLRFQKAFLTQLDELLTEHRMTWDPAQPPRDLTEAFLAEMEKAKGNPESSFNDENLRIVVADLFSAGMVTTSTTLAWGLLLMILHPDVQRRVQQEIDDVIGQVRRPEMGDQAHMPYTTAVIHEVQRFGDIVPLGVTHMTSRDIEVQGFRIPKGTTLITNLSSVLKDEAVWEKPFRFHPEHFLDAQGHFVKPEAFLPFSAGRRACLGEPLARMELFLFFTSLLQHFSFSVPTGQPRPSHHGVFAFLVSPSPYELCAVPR

[6] = Dissociation constant, pKa of compound; format: physicochemical
Cytochrome P450 2C19 = Cytochrome P450 2C19 (Homo sapiens, UniProt P33261); assay: Inhibition of CYP2C19 in human liver microsomes using mephenytoin as substrate incubated for 45 min in presence of NADPH by LC-MS/MS analysis; format: ADME, Microsome
Cytochrome P450 2C19, sequence (P33261 whole entry): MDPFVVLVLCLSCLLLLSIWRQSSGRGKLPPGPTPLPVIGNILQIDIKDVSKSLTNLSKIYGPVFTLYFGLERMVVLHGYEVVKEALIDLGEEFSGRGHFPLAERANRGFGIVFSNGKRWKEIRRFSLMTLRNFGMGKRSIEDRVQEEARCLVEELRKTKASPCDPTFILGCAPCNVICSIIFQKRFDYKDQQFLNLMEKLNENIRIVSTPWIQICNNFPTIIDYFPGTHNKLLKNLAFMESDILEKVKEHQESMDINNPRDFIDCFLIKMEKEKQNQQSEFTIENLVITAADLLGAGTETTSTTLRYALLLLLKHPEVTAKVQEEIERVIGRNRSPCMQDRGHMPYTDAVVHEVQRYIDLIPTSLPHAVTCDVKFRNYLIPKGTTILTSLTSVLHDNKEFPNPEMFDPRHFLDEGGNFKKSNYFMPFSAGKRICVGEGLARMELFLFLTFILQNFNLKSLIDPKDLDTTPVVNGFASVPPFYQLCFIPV

[7] = Microsomal stability in dog liver microsome assessed as compound remaining measured upto 45 min in presence of NADPH by LC-MS analysis; format: ADME, Canis lupus familiaris; conditions: liver microsomes, read-out: Stability
Rattus norvegicus [8] = assay: Antidiabetic activity high-fat diet induced female Sprague-Dawley rat model assessed as reduction in body weight at 3 to 30 mg/kg measured after 28 days by oral glucose tolerance test; format: functional, organism-based; conditions: dose 3-30 mg/kg, time 28.0 day
[9] = Kinetic solubility of the compound in water; format: physicochemical; conditions: read-out: Kinetic_solubility
Rattus norvegicus [10] = assay: Antidiabetic activity in high-fat diet induced obese female Sprague-Dawley rat model assessed as hypoglycemic effect at 3 to 30 mg/kg administered once daily for 5 weeks by oral glucose tolerance test; format: functional, organism-based; conditions: dose 3-30 mg/kg
Cytochrome P450 3A4 = Cytochrome P450 3A4 (Homo sapiens, UniProt P08684); assay: Inhibition of CYP3A4 in human liver microsomes using midazolam as substrate incubated for 5 min in presence of NADPH by LC-MS/MS analysis; format: ADME, Microsome
Cytochrome P450 3A4, sequence (P08684 whole entry): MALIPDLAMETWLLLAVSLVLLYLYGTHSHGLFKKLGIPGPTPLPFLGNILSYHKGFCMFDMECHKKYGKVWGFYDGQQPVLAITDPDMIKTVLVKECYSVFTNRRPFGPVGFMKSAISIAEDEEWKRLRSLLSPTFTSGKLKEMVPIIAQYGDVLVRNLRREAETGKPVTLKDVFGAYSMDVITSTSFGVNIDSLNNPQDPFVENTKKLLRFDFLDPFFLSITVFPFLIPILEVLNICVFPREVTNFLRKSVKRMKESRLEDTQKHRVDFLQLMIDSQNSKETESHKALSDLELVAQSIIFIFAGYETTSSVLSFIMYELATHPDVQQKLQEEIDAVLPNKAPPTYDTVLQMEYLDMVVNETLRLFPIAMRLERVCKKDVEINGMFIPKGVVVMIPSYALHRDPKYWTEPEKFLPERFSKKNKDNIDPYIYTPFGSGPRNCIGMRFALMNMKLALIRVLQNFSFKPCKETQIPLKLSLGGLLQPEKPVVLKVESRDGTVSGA

[11] = Half-life in Beagle dog at 10 mg/kg, po measured upto 48 hrs by LC-MS/MS analysis; format: ADME, organism-based, Canis lupus familiaris; conditions: in vivo
[12] = Induction of GLP-1 secretion in human NCI-H716 cells assessed as fold change at 30 uM measured after 1 hr by ELISA method; format: functional
[13] = Microsomal stability in human liver microsome assessed as compound remaining measured upto 45 min in presence of NADPH by LC-MS analysis; format: ADME; conditions: liver microsomes, read-out: Stability
Mus musculus [14] = assay: Anti-diabetic activity in male db/db mouse assessed as reduction in blood glucose level administered twice a day preincubated with compound for 30 min followed by glucose bolus addition and measured upto 120 min by oral glucose tolerance test; format: functional, organism-based; conditions: dose 30-30 mg/kg, time <= 150.0 min
[15] = Half-life in Sprague-Dawley rat at 30 mg/kg, po measured upto 48 hrs by LC-MS/MS analysis; format: ADME, organism-based; conditions: in vivo
Mus musculus [16] = assay: Anti-diabetic activity in male FATZO mouse assessed as reduction in blood glucose level by measuring reduction in AUC […] at 30 mg/kg pre-administered with compound for 30 min followed by glucose bolus addition and measured upto 120 min by oral glucose tolerance test relative to control; format: functional; parameters: scale not given: the % may be the effect or the level left; conditions: time <= 150 min, 2.5 h
Rattus norvegicus [17] = assay: Antidiabetic activity high-fat diet induced obese female Sprague-Dawley rat model assessed as reduction in fasting glucose levels at 3 to 30 mg/kg measured after 37 days by oral glucose tolerance test; format: functional, organism-based; conditions: dose 3-30 mg/kg, time 37.0 day
[18] = Microsomal stability in rat liver microsome assessed as compound remaining measured upto 45 min in presence of NADPH by LC-MS analysis; format: ADME; conditions: liver microsomes, read-out: Stability
[19] = Induction of GLP-1 secretion in human NCI-H716 cells assessed as fold change at 10 uM measured after 1 hr by ELISA method; format: functional
[20] = Half-life in Cynomolgus monkey at 30 mg/kg, po measured upto 48 hrs by LC-MS/MS analysis; format: ADME, organism-based, Macaca fascicularis; conditions: in vivo
Cytochrome P450 2C9 = Cytochrome P450 2C9 (Homo sapiens, UniProt P11712); assay: Inhibition of CYP2C9 in human liver microsomes using diclofenac as substrate incubated for 10 min in presence of NADPH by LC-MS/MS analysis; format: ADME, Microsome
Cytochrome P450 2C9, sequence (P11712 whole entry): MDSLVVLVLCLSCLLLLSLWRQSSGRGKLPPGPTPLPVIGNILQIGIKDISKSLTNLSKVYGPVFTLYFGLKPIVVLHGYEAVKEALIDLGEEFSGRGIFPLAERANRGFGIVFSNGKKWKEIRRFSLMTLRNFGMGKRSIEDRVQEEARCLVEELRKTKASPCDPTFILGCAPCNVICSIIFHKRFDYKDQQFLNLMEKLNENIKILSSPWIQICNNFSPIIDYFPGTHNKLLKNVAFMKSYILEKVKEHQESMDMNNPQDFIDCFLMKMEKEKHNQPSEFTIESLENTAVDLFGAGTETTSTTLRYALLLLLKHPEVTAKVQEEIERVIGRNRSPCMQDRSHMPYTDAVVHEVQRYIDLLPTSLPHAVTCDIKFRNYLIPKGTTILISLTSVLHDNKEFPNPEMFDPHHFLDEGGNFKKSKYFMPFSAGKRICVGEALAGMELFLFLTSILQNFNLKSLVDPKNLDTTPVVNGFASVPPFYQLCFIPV

INS1 = assay: Induction of insulin secretion in glucose treated INS1 cells at 0.1 to 1 uM measured after 1 hr by ELISA method; format: functional, cell-based; conditions: Rattus norvegicus, dose 0.1-1 µM
Cytochrome P450 1A2 = target: T2, Cytochrome P450 1A2 (Homo sapiens, UniProt P05177); assay: Inhibition of CYP1A2 in human liver microsomes using phenacetin as substrate incubated for 10 min in presence of NADPH by LC-MS/MS analysis; format: ADME, Microsome
T2 sequence (P05177 whole entry): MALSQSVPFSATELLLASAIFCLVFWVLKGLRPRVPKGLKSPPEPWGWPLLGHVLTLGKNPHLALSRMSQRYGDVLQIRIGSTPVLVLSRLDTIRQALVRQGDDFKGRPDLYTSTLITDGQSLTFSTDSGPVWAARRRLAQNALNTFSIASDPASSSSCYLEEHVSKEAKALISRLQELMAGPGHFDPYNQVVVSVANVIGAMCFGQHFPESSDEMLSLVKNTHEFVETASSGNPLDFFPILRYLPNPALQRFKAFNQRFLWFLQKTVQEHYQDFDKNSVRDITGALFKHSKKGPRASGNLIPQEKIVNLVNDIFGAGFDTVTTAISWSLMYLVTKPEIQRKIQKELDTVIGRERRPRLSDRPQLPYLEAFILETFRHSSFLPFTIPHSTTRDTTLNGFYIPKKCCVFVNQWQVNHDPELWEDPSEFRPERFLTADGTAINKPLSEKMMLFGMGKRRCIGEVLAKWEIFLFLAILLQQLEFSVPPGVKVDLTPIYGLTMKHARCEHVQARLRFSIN

[21] = Oral bioavailability in Sprague-Dawley rat at 30 mg/kg measured upto 48 hrs by LC-MS/MS analysis; format: ADME, organism-based; conditions: in vivo
Mus musculus [22] = assay: as §1, with “at 30” for “at 20”; format: functional; parameters: scale not given: the % may be the effect or the level left; conditions: time <= 150 min, 2.5 h
Mus musculus [23] = assay: Anti-diabetic activity in overnight fasted male C57BL/6J mouse assessed as reduction in blood glucose level administered twice a day preincubated with compound for 30 min followed by glucose bolus addition and measured upto 120 min by oral glucose tolerance test; format: functional, organism-based; conditions: dose 3-30 mg/kg, time <= 150.0 min
Mus musculus [24] = assay: Anti-diabetic activity in male FATZO mouse assessed as reduction in blood glucose level by measuring AUC […] at 300 mg/kg once a day pre-administered with compound for 30 min followed by glucose bolus addition and measured upto 120 min by oral glucose tolerance test relative to control; format: functional; parameters: scale not given: the % may be the effect or the level left; conditions: time <= 150 min, 2.5 h

EC50 [1]: 27 nM
Structure (SMILES): CCc1cnc(N2CCC(COc3ccc(C4=CCC(C(=O)N5CCCC5)CC4)cc3)CC2)nc1 (stereo unspecified)
Activity (Mus musculus [2]): 15.9%

EC50 [1]: 13 nM
Structure (SMILES): CCc1cnc(N2CCC(COc3ccc(C4=CCC(C(=O)N5CC[C@@H](O)C5)CC4)cc3)CC2)nc1 (stereo partly specified)
Activity (Mus musculus [2]): 13.5%

EC50 [1]: 70 nM
Structure (SMILES): CCc1cnc(N2CCC(COc3ccc(C4=CCC(C(=O)N5CC(O)C5)CC4)cc3)CC2)nc1 (stereo unspecified)
Activity (Mus musculus [2]): 12.3%

EC50 [1]: 26 nM
Structure (SMILES): CCc1cnc(N2CCC(COc3ccc(C4=CCC(C(=O)N5CC[C@H](O)C5)CC4)cc3)CC2)nc1 (stereo partly specified)
Activity (Mus musculus [2]): 7.2%

Continued, compound first:

Structure (SMILES): CCc1cnc(N2CCC(COc3ccc(C4=CC[C@@H](C(=O)N5CCC[C@@H]5CO)CC4)cc3)CC2)nc1
EC50 [1]: 32 nM

Structure (SMILES): CC(C)(C)OC(=O)N1CCC(COc2ccc(C3=CCC(C(=O)NCCO)CC3)cc2)CC1 (stereo unspecified)
EC50 [1]: 140 nM
Activity (Mus musculus [2]): 6.7%

Structure (SMILES): CCc1cnc(N2CCC(COc3ccc(C4=CCC(C(=O)N5CCOCC5)CC4)cc3)CC2)nc1 (stereo unspecified)
EC50 [1]: 13 nM
Activity (Mus musculus [2]): 15.7%

Structure (SMILES): CCc1cnc(N2CCC(COc3ccc(C4=CCC(C(=O)N5CCC(F)(F)C5)CC4)cc3)CC2)nc1 (stereo unspecified)
EC50 [1]: 10 nM
Activity (Mus musculus [2]): 12.6%

Structure (SMILES): CCc1cnc(N2CCC(COc3ccc(C4=CC[C@H](C(=O)N5CCC[C@@H]5CO)CC4)cc3)CC2)nc1
IC50 [3]: > 100000 nM
logP [4]: 3.45
bioavailability [5]: 31.6%
EC50 [1]: 3.8 nM
IC50 (Cytochrome P450 2D6): > 10000 nM
pKa [6]: 2.49
IC50 (Cytochrome P450 2C19): > 10000 nM
remaining at 0.75 h [7]: 62.4%
Activity (Rattus norvegicus [8]): Active; Significant Reduction In Body Weight
solubility kinetic [9]: 176 µM (≈ 88.8 µg/mL)
Activity (Rattus norvegicus [10]): Active; Strong Glucose Tolerant Ability
IC50 (Cytochrome P450 3A4): > 10000 nM
half-life [11]: 17.2 h
fold change (FC) [12]: 1.8
remaining at 0.75 h [13]: 53.8%
Activity (Mus musculus [14]): Dose-dependent-effect; Superior Compared To Sitagliptin
half-life [15]: 5.4 h
Activity (Mus musculus [16]): 22.9%
Activity (Rattus norvegicus [17]): Active
remaining at 0.75 h [18]: 48.3%
fold change (FC) [19]: 1.7
half-life [20]: 11.7 h
IC50 (Cytochrome P450 2C9): > 10000 nM
Activity (INS1): Active
IC50 (Cytochrome P450 1A2): > 10000 nM
bioavailability [21]: 28.3%

Structure (SMILES): CC(C)(C)OC(=O)N1CCC(COc2ccc(C3=CCC(C(=O)NC4CC4)CC3)cc2)CC1 (stereo unspecified)
EC50 [1]: 40 nM

Structure (SMILES): CCc1cnc(N2CCC(COc3ccc(C4=CCC(C(=O)N5CCC[C@@H]5CO)CC4)cc3)CC2)nc1 (stereo partly specified)
EC50 [1]: 6.8 nM
Activity (Mus musculus [2]): 16.6%
Activity (Mus musculus [22]): 25.8%
Activity (Mus musculus [23]): Dose-dependent-effect

Structure (SMILES): CN(C)C(=N)NC(=N)N [METFORMIN]
Activity (Mus musculus [24]): 25%

Structure (SMILES): CC(C)c1noc(N2CCC(COc3ccc(C4=CCC(C(=O)N5CCOCC5)CC4)cc3)CC2)n1 (stereo unspecified)
EC50 [1]: 18 nM
Activity (Mus musculus [2]): 4.1%

Structure (SMILES): CCc1cnc(N2CCC(COc3ccc(C4=CCC(C(=O)N5CCC[C@H]5CO)CC4)cc3)CC2)nc1 (stereo partly specified)
EC50 [1]: 31 nM
Activity (Mus musculus [2]): 9.8%
